# From patent US9975860B2, “Anti-angiogenic compounds” (UNIVERSITY COLLEGE DUBLIN—NATIONAL UNIVERSITY OF IRELAND, …, priority 2014, dated 2018)
# Entries after “also recorded” stand apart in the source; their conditions may differ.
# Experiments:
# [1] = test system: Ang-2; experiment: Multiplex ELISA of HMEC media: Ang-2; assay type: cell-based, human; settings: compound-treated HMECs, 16 hours
# Experimental: (§1) Dermal-derived Human Microvascular Endothelial Cells (HMEC) were maintained at 37° C./5% CO2 in MCDB-131 medium (Gibco/cat: 10372) supplemented with 10% FCS, L-Glutamine (Gibco/cat: 25030-032), 1 μl/ml Hydrocortisone (Sigma/cat: H0396), 10 ng/ml EGF (BD Biosciences 354001) and 1% Pen-Strep (Gibco/cat: 151040-148). The wells of a μ-slide angiogenesis plate (IBIDI Cat no: 81506) were coated with a layer of matrigel matrix (BD 356234) which was left to polymerize for 45 minutes at 37° C. HMECs were grown to 80% confluence, washed with DPBS (Invitrogen) and trypsinised using 2 ml TrypLE™ Express (1×) (Invitrogen). Cells were centrifuged following flask detachment at 1200 rpm for 4 minutes. The cell pellet was resuspended in 3 ml full media and a cell count was performed using a haemocytometer. 7.5×10^3 cells were pipetted into each matrigel coated well of the μ-slide angiogenesis plate and treated with either 0.1% DMSO or 1, 3.16 or 10 μM compound 4 or compound 18. The slide was kept at 37° C./5% CO2 during cell tube formation. After 16 hours, 50 μl of media was removed from each of the Ibidi wells and 25 μl of the media was run in each well of a Meso Scale Discovery (MD, USA) custom multiplex ELISA containing the following analytes: Ang-1, Ang-2, VEGF, bFGF, PAI-1, sICAM and sVCAM. The ELISA was run as per manufacturer's instructions.
# [2] = test system: HT29-LUC radioresistant colorectal adenocarcinoma cells; experiment: Seahorse OCR (oxidative phosphorylation) in HT29-LUC; assay type: cell-based, human; settings: 10 μM, 24 hours, p<0.01
# Experimental: HT29-LUC radioresistant colorectal adenocarcinoma cells were used to test the effects of the compound 4 on oxidative phosphorylation. Cells were maintained in McCoy's 5A media supplemented with 10% foetal calf serum. A total of 20,000 cells, in 100 μl media, were seeded per well in 24 well plates and left to incubate for 24 hours, with an additional 150 μl media added after 5 hours. The media was replaced with solutions containing 10 μM of compound 4 or the equivalent volume of DMSO vehicle control. After 24 hours of treatment, media was replaced with modified DMEM supplemented with 0.5 mM glucose. Rates of oxidative phosphorylation were determined using Seahorse Biosciences metabolism technology. The media was disposed and the cells washed with PBS. The cells were fixed with 1% glutaraldehyde for 15 minutes and then stained with crystal violet for 30 minutes. The plates were blotted and dried overnight. The cells were resuspended with 1% TritonX-100 and shaken for 15 minutes. The absorbance was read on a spectrophotometer at 595 nm Rates of oxidative phosphorylation were then normalised to cell number.
# [3] = test system: human microvascular endothelial cells (HMECs); experiment: In vitro tubule formation in human microvascular endothelial cells; assay type: cell-based; settings: 1, 3.16 and 10 μM, 16 hours, HMEC on matrigel
# Experimental: as §1, with “the cells were imaged by phase contrast microscopy using the Zeiss Axiovert 200 M microscope. Total tubule length” for “50 μl of media”, “quantified using Zeiss Axiovision image analysis software. Calcein AM stain (C3099 Invitrogen) was prepared at 2 μg/ml final concentration” for “removed from each of the Ibidi wells”, “incubated with HMEC cells” for “25 μl of the media was run in each well of a Meso Scale Discovery (MD, USA) custom multiplex ELISA containing the”, “tubule formation for 30 minutes at 37° C. […]” for “analytes: Ang-1, Ang-2, VEGF, bFGF, PAI-1, sICAM and sVCAM. The ELISA was run as per manufacturer's instructions.”
# [4] = test system: primary hyaloid vessels in zebrafish; experiment: Quantification of primary hyaloid vasculature branch number in Tg(fli1:EGFP) zebrafish; assay type: in vivo
# Experimental: All experiments were carried out under ethical approval granted by the UCD animal research ethics committee. Tg(fli1:EGFP) zebrafish were maintained according to standard procedures on a 14 hr light/10 hr dark cycle at 28° C. Embryos were obtained by natural spawning and developmental stages established by time and morphological criteria. At 48 hours post fertilisation (hpf), 5 embryos per well were placed in 400 μl of Embryo Medium/0.1% DMSO and incubated with compound (typically, 10 μM) at 28° C. on a 14 h light/10 h dark cycle. At 5 days post fertilisation (dpf), larvae were euthanised, and fixed in 4% PFA at 4° C. overnight before analysis.
# Prior to analysis of the intraocular vasculature, the control and treated larvae were observed under an Olympus SZX16 stereo zoom microscope and screened for general malformations. Overall patterning of the vasculature (fin, gut and intersegmental vessels) was examined for abnormalities. Right lenses were dissected from the larvae and transferred to depression slides for observation under epi-fluorescence in the Olympus SZX16. Patterning of the hyaloid vessels on the treated larval lenses was compared to 0.1% DMSO controls and the archetypal pattern previously described (Alvarez et al., 2007; Alvarez et al., 2009). The number of primary vessels radiating from the back of the lens (3-4 main branches at 5 dpf in controls and previously described), was counted and the average number was graphed for each drug.
# All experimental protocols were carried out as per example 1 and 2. Briefly, zebrafish larvae were treated with 10 μM of AT-051/41206012 (chemical name 2-[2-(2-methoxyphenyl)ethenyl]pyrazine) purchased from Specs (The Netherlands). At 6 or 48 hours post fertilisation (hpf), 5 embryos per well were placed in 400 μl of Embryo Medium/0.1% DMSO and incubated with 10 μM AT-051/41206012 at 28° C. on a 14 h light/10 h dark cycle. Larvae were treated from 6-48 hpf (intersegmental vessel study) or from 48 to 120 hpf (primary hyaloid vessel study). At the end of the study, larvae were euthanized and fixed in 4% PFA at 4° C. overnight before analysis.
# The number of intersegmental vessels was counted and the average number was graphed for each drug. Right lenses were dissected from the larvae and transferred to depression slides for observation and the number of primary hyaloid vessels radiating from the back of the lens (3-4 main branches at 5 dpf in controls and previously described), was counted and the average number was graphed for each drug.
# [5] = test system: VEGF; experiment: Multiplex ELISA of HMEC media: VEGF; assay type: cell-based, human; settings: compound-treated HMECs, 16 hours
# Experimental: as §1
# [6] = test system: sVCAM-1; experiment: Multiplex ELISA of HMEC media: sVCAM-1; assay type: cell-based, human; settings: compound-treated HMECs, 16 hours
# Experimental: as §1
# [7] = 10 μM, zebrafish larvae treated 48 hpf to 5 dpf, vs 0.1% DMSO control
# [8] = concentrations below 10 μM (range 1, 2.5, 5, 7.5 and 10 μM tested), zebrafish larvae 48 hpf to 5 dpf
Compound,expression of Ang-2 ([1]; hydrochloride),"oxygen consumption rate (OCR), a measure of oxidative phosphorylation [2]",tubule formation (total tubule length) ([3]; hydrochloride),"inhibition of developmental angiogenesis of the hyaloid vasculature (number of primary hyaloid vessels) [4, 7]","inhibition of developmental angiogenesis of the hyaloid vasculature (number of primary hyaloid vessels) [4, 8]",expression of VEGF [5],expression of sVCAM-1 [6],expression of Ang-2 [1],tubule formation (total tubule length) [3]
"Cl.Oc1ccccc1/C=C/c1cnccn1 [Compound 4, (E)-2-[2-(Pyrazin-2-yl)vinyl]phenol hydrochloride]",significantly reduce; also recorded: reduce expression of Ang-2 and PAI-1 in human endothelial microvascular cells in a statistically significant manner,significantly reduces oxygen consumption rate,significantly reduce tubule formation; also recorded: inhibit in vitro tubule formation in a statistically significant manner,inhibit developmental angiogenesis of the zebrafish hyaloid vasculature in a statistically significant manner,inhibit developmental angiogenesis of the zebrafish hyaloid vasculature in a statistically significant manner,not significantly different to control-treated HMECs,not significantly different to control-treated HMECs,,
"Oc1ccccc1C#Cc1cnccn1 [Compound 18, 2-[2-(Pyrazin-2-yl)ethynyl]phenol]",,,,inhibit developmental angiogenesis of the zebrafish hyaloid vasculature in a statistically significant manner,inhibit developmental angiogenesis of the zebrafish hyaloid vasculature in a statistically significant manner,not significantly different to control-treated HMECs,not significantly different to control-treated HMECs,significantly reduce; also recorded: reduce expression of Ang-2 and PAI-1 in human endothelial microvascular cells in a statistically significant manner,significantly reduce tubule formation; also recorded: inhibit in vitro tubule formation in a statistically significant manner
